In general, IC50 refers to the concentration needed to halve the response being measured.

The source of these data is patent US20170334865A1, “DDR2 INHIBITORS AND METHODS OF USING” (WASHINGTON UNIVERSITY, priority 2014, published 2017).

The target of the assay is T1, DDR2 extracellular domain (ECD) (Homo sapiens, UniProt Q16832).
T1 sequence (Q16832 22-399 limits assumed): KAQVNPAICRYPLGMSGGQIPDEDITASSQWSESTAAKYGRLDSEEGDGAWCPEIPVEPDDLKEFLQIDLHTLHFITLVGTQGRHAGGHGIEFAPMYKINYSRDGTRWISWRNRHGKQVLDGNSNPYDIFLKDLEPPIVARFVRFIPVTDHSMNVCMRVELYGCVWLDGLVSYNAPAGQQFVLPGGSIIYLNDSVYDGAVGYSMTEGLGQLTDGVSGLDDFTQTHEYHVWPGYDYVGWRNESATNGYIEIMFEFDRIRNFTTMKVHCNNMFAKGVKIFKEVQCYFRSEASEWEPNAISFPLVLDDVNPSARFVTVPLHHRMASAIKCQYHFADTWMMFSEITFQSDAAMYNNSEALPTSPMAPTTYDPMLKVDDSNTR
In words: in vitro ELISA-type assay, binding of soluble DDR2 ECD to immobilized collagen triple helical peptide. The conditions noted are these: read-out: IC50, Inhibition of DDR2-collagen binding activity. As for the experimental part:
The activity of the synthesized compounds was assayed using an in vitro ELISA-type assay to measure the binding of purified, soluble DDR2 extracellular domain (ECD) to an immobilized substrate. The substrate used was a high affinity, specific, triple helical peptide (see Xu et al., PLoS One. 2012; 7(12): e52209), which represents the minimal DDR2 specific binding domain within collagens I-III.
DDR2-collagen binding activity was measured in the presence of 250 nM, 500 nM, or 2 μM of test compound or DMSO control.
(In an ELISA, binding on a coated surface is turned into a signal by an enzyme label.)

SMILES strings stand for the structures. Like-named read-outs stand apart in the source and are kept apart here. Where only a bound is given, the exact number is not on record here.

For the compound `CCOc1ccc2nc3ccc(=O)cc-3oc2c1` [7-ethyloxy-phenoxazin-3-one, reference compound], the IC50 (values given in μM) was 4 µM.

As to `CCCCCOc1ccc2nc3ccc(=O)cc-3oc2c1` [WRG-1, 7-pentyloxy-phenoxazin-3-one], the IC50 (values given in μM) amounted to 3.5 µM.

As to `O=c1ccc2nc3ccc(OCc4ccccc4)cc3oc-2c1` [WRG-2, 7-benzyloxy-phenoxazin-3-one], for the setting “values in nM”, the IC50 was 0.461 µM.

`COCCOc1ccc2nc3ccc(=O)cc-3oc2c1` [WRG-R-4]: under “values given in μM”, the IC50 was 14 µM.

Turning to `COc1cccc(COc2ccc3nc4ccc(=O)cc-4oc3c2)c1` [WRG-R-5], for the setting “values in nM”, the IC50 turned out to be 0.393 µM.

With `O=C(Oc1ccc2nc3ccc(=O)cc-3oc2c1)c1ccccc1` [WRG-R-6], the IC50 (values given in μM) amounted to 1.41 µM.

With `O=c1ccc2nc3ccc(OS(=O)(=O)c4ccccc4)cc3oc-2c1` [WRG-R-7], the IC50 (values in nM) was 0.558 µM.

As for `O=c1ccc2nc3ccc(OCc4cccnc4)cc3oc-2c1` [WRG-R-9], the IC50 (values given in μM) came to 1.2 µM.

For the compound `O=c1ccc2nc3ccc(OCc4ccncc4)cc3oc-2c1` [WRG-R-10], the IC50 (values in nM) was found to be 0.311 µM.

`O=C(Nc1ccccc1)Oc1ccc2nc3ccc(=O)cc-3oc2c1` [WRG-R-12]: the IC50 (values given in μM) is greater than 100 µM.

`O=c1ccc2nc3ccc(NS(=O)(=O)c4ccccc4)cc3oc-2c1` [WRG-R-20]: where the note is “values given in μM”, the IC50 is greater than 100 µM.

For `O=c1ccc2nc3ccc(OCc4ccc(OC(F)F)cc4)cc3oc-2c1` [WRG-R-27], the IC50 (values in nM) turned out to be 0.11 µM.
